# pIC50: −log10 of the molar value. “And” between values parts separate entries of the source, which are not always exact repeats. Equal values may be shown once.
# Tested on: 422866-222-R5-J1-PDC spheroids with HUVEC/MSC, viability
# Experiment: Anticancer human tumor 422866-222-R5-J1-PDC patient-derived pancreatic adenocarcinoma cell line growth inhibition [GQUAD]
# Details: for viability, T/C: stronger effect = lower value
# From the text: DNA G-quadruplex Stabilizer Agents in Combinations in Complex Spheroids
# A high-throughput screen of multi-cell type tumor spheroids was designed to identify active combinations of DNA G-quadruplex stabilizer agents and targeted small molecules. Complex spheroids include a stromal component modeled by human endothelial cells (HUVEC) and fibroblasts modeled by human mesenchymal stem cells (MSCs). The concentration ranges selected for each drug and investigational agent were based upon clinically achievable concentrations if the clinical Cmax of the agent was known.
# Compounds. The drugs and investigational agents: pidnarulex (CX-5461; NSC782164), APTO-253 (NSC789042), BRACO-19 (NSC847499), peposertib (NSC802822), ceralasertib (NSC780249), elimusertib (NSC800525), camonsertib (NSC841442), AZD-1390 (NSC803789), olaparib (NSC753686), talazoparib (NSC767125), ART-558 (NSC835418), sotorasib (NSC818433), MRTX-1133 (NSC836407), SN-38 (NSC673596), topotecan (NSC609699), etoposide (NSC141540), doxorubicin (NSC123127), gemcitabine (NSC613327), 5-fluorouracil (NSC19893), paclitaxel (NSC125973), vemurafenib (NSC761431), panobinostat (NSC761190), R-306465 (JNJ-16241199; NSC773264), adavosertib (NSC754352), TP-3654 (NSC805149), carboplatin (NSC241240), KSQ-4279 (NSC840948), and staurosporine (NSC755774) were obtained from the National Cancer Institute (NCI) Developmental Therapeutics Program Chemical Repository (34). The FDA-approved anticancer drug set is available from the NCI Developmental Therapeutics Program. […] The stock solutions were prepared in dimethyl sulfoxide (DMSO, Sigma-Aldrich, St. Louis, MO, cat. D2650) at 800-fold the tested concentration and stored at -70 degrees C prior to their use. All drugs and investigational agents were tested over a range starting from a high concentration at or near the clinical Cmax and decreasing in half-log increments. If the clinical Cmax for an agent had not been determined, the highest concentration tested was 10 microM.
# 2.3 Cell Culture. All cells were maintained in an incubator at 37 degrees C and 5% CO2 with 95% humidity. The PDC lines were cultured according to standard operating procedures established by the NCI PDMR. All PDCs were thawed and cultured in Matrigel-coated flasks prepared with a working solution of 1X Ham's F-12 nutrient mix, without supplementation (Invitrogen, cat. 11765054), 100 U/mL penicillin-streptomycin (Invitrogen, cat. 15140122), and 2.5% Matrigel (Corning Inc., cat. 354248) for the first three passages. The 857933-349-R-J2-PDC line was cultured in 6C/Colon 1B media, which includes advanced DMEM/F-12 (Thermo Fisher Scientific, cat. 12634028), 10 mM HEPES (Thermo Fisher Scientific, cat. 15630080), 1X GlutaMAX supplement (Thermo Fisher Scientific, cat. 35050061), 0.1 mg/mL primocin (InvivoGen, cat. ant-pm-2), 10% defined fetal bovine serum, heat inactivated (HyClone Laboratories Inc., cat. SH30070.03HI), 50% L-WRN conditioned media (ATCC, cat. CRL-3276), 1.25 mM N-Acetyl-L-cysteine (Sigma-Aldrich, cat. A9165), 10 mM nicotinamide (Sigma-Aldrich, cat. N0636), 1X B-27 supplement (Thermo Fisher Scientific, cat. 17504044), 1X N-2 supplement (Thermo Fisher Scientific, cat. 17502048), 10 microM Y-27632 dihydrochloride (Tocris Bioscience, cat. 1254), and 50 ng/mL human EGF recombinant protein (Thermo Fisher Scientific, cat. PHG0311). The 485176-168-R4-J1-PDC line was cultured in Panc media, which includes all 6C/Colon 1B media components plus 100 ng/mL human FGF-10 (Thermo Fisher Scientific, cat. 100-26), 500 nM SB-431542 (Selleckchem, cat. S1067), and gastrin (Tocris, cat. 3006).
# […]
# 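Note: spheroids exposed to compounds for seven days before reading.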
# 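Throughout, for viability, T/C: percent viability relative to DMSO vehicle control taken as 100%.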
structure (smiles),measurement,setting,value
O=C(c1cc(Cc2n[nH]c(=O)c3ccccc23)ccc1F)N1CCN(C(=O)C2CC2)CC1,"viability, T/C",compound 0.0316 µM,95.7% and 90.6% and 98.8%
same,"viability, T/C",compound 0.1 µM,89.7% and 88.2% and 93.5%
same,"viability, T/C",compound 0.316 µM,95.3% and 90.9% and 94%
same,"viability, T/C",compound 1 µM,81.4% and 92.8% and 99.6%
same,"viability, T/C",compound 3.16 µM,74% and 86.8% and 84%
same,"viability, T/C",compound 10 µM,79.3% and 66.8% and 59%
same,pIC50,curve of compound,< 5.00
CC[C@@]1(O)C(=O)OCc2c1cc1n(c2=O)Cc2cc3c(CN(C)C)c(O)ccc3nc2-1,"viability, T/C",compound 0.000999 µM,83.5% and 106% and 100%
same,"viability, T/C",compound 0.00316 µM,90.9% and 90.2% and 96.4%
same,"viability, T/C",compound 0.00999 µM,95.7% and 88.8% and 103%
same,"viability, T/C",compound 0.0316 µM,75.4% and 74.9% and 70.9%
same,"viability, T/C",compound 0.0999 µM,45.5% and 52.7% and 40.6%
same,"viability, T/C",compound 0.316 µM,42.4% and 50.6% and 38.1%
same,pIC50,curve of compound,7.09 and 6.59 and 7.17
Cc1[nH]c2ccc(F)cc2c1-c1nc2c3cccnc3c3ncccc3c2[nH]1,"viability, T/C",compound 3.16 µM,84.5% [middle of 12 runs]
same,pIC50,"compound alone, run of 04/16/2024",< 5.00
same,pIC50,"compound alone, run of 04/22/2024",< 5.00
Cc1[nH]c2ccccc2c1CCNCc1ccc(/C=C/C(=O)NO)cc1 + Cc1cnc(CNC(=O)c2c(=O)c3ccc(N4CCCN(C)CC4)nc3n3c2sc2ccccc23)cn1,pIC50,"curve of first compound, second compound 0.0316 µM",< 6.50
same,pIC50,"curve of first compound, second compound 0.1 µM",6.56
same,pIC50,"curve of first compound, second compound 0.316 µM",< 6.50
same,pIC50,"curve of first compound, second compound 1 µM",< 6.50
same,pIC50,"curve of first compound, second compound 3.16 µM",6.57
same,pIC50,"curve of first compound, second compound 10 µM",6.64
same,"viability, T/C","second compound 0.0316 µM, first compound 0.000999 µM",99.8%
same,"viability, T/C","second compound 0.0316 µM, first compound 0.00316 µM",94.7%
same,"viability, T/C","second compound 0.0316 µM, first compound 0.00999 µM",83.5%
same,"viability, T/C","second compound 0.0316 µM, first compound 0.0316 µM",65.8%
same,"viability, T/C","second compound 0.0316 µM, first compound 0.0999 µM",77.8%
same,"viability, T/C","second compound 0.0316 µM, first compound 0.316 µM",46.8%
same,"viability, T/C","second compound 0.1 µM, first compound 0.000999 µM",91.6%
same,"viability, T/C","second compound 0.1 µM, first compound 0.00316 µM",86.7%
same,"viability, T/C","second compound 0.1 µM, first compound 0.00999 µM",83.4%
same,"viability, T/C","second compound 0.1 µM, first compound 0.0316 µM",66.6%
same,"viability, T/C","second compound 0.1 µM, first compound 0.0999 µM",68%
same,"viability, T/C","second compound 0.1 µM, first compound 0.316 µM",46.6%
same,"viability, T/C","second compound 0.316 µM, first compound 0.000999 µM",79.5%
same,"viability, T/C","second compound 0.316 µM, first compound 0.00316 µM",73.9%
same,"viability, T/C","second compound 0.316 µM, first compound 0.00999 µM",80.3%
same,"viability, T/C","second compound 0.316 µM, first compound 0.0316 µM",78.8%
same,"viability, T/C","second compound 0.316 µM, first compound 0.0999 µM",67.4%
same,"viability, T/C","second compound 0.316 µM, first compound 0.316 µM",55.9%
same,"viability, T/C","second compound 1 µM, first compound 0.000999 µM",75.2%
same,"viability, T/C","second compound 1 µM, first compound 0.00316 µM",72.6%
same,"viability, T/C","second compound 1 µM, first compound 0.00999 µM",74.3%
same,"viability, T/C","second compound 1 µM, first compound 0.0316 µM",62.6%
same,"viability, T/C","second compound 1 µM, first compound 0.0999 µM",70.4%
same,"viability, T/C","second compound 1 µM, first compound 0.316 µM",63.7%
same,"viability, T/C","second compound 3.16 µM, first compound 0.000999 µM",73.8%
same,"viability, T/C","second compound 3.16 µM, first compound 0.00316 µM",78.6%
same,"viability, T/C","second compound 3.16 µM, first compound 0.00999 µM",87.4%
same,"viability, T/C","second compound 3.16 µM, first compound 0.0316 µM",78.8%
same,"viability, T/C","second compound 3.16 µM, first compound 0.0999 µM",76.1%
same,"viability, T/C","second compound 3.16 µM, first compound 0.316 µM",45.8%
same,"viability, T/C","second compound 10 µM, first compound 0.000999 µM",75.2%
same,"viability, T/C","second compound 10 µM, first compound 0.00316 µM",67.8%
same,"viability, T/C","second compound 10 µM, first compound 0.00999 µM",68.7%
same,"viability, T/C","second compound 10 µM, first compound 0.0316 µM",84.5%
same,"viability, T/C","second compound 10 µM, first compound 0.0999 µM",70.3%
same,"viability, T/C","second compound 10 µM, first compound 0.316 µM",41.4%
